These are literature values, as cited in EP3808777A1, “STABLE LIQUID ANTIBODY FORMULATIONS” (Glenmark Specialty S.A., priority 2019, dated 2021).

The structures appear in SMILES notation.

For `NCCCC[C@H](N)C(=O)O` [Lysine], the pKa values is 9.06.

With `N[C@@H](Cc1c[nH]cn1)C(=O)O` [L-hisitidine], the effective buffering range (pH range) was 5.5-7.4. Turning to `N=C(N)NCCC[C@H](N)C(=O)O` [Arginine], the pKa values was 1.82.
